The source of these data is patent publication US9310660B2, “Organic compound and electrochromic element including the same” (CANON KABUSHIKI KAISHA, priority 2013, dated 2016).

The nature of data set [1]: Solubility in propylene carbonate. The note with it: organic solvent or mixture. Type of data set: physicochemical. The procedure: The solubilities of three compounds: Compound A-1 prepared in Example 1, Compound B-1 prepared in Example 2, and pyridinium salt precursor Ref-1 of Compound A-1 as a comparative example, in propylene carbonate, a solvent for an EC element, were measured.
Compound Ref-1 as a comparative example has a structure in which the pyridinium salt moiety of Compound A-1 is replaced by a non-ionized structure, a pyridyl group. The molecular structure is shown below.

Data set [2] in a line: Ultraviolet and visible absorption spectrum in chloroform. Type of data set: physicochemical. The note with it: dissolved in chloroform, neutralized state. The procedure:
The resulting exemplified compound A-1 was dissolved in chloroform. The absorption spectrum of the solution was measured with an ultraviolet and visible spectrometer (V-560, manufactured by JASCO Corp.) and is shown in FIG. 2.
The resulting exemplified compound B-1 was dissolved in chloroform. The absorption spectrum of the solution was measured as in Example 1.

SMILES strings stand for the structures. Where only a bound is given, the exact number is not on record here.

Turning to `Cc1cc(C)c(-c2cc3sc4cc(-c5cccc(-c6cc[n+](Cc7ccccc7)cc6)c5)sc4c3s2)c(C)c1` [Compound A-1], the solubility in data set [1] is not below 300 mM. Moreover, in data set [2], the “maximum absorption peak λmax” value came out at 355.5 nm.

With `Cc1c(-c2cccc(-c3cc[n+](Cc4ccccc4)cc3)c2)sc(-c2cccc(-c3cc[n+](Cc4ccccc4)cc3)c2)c1C` [Compound B-1], the solubility in data set [1] was not below 75 mM. Further, in data set [2], the “maximum absorption peak λmax” value is 311.5 nm.

With `Cc1cc(C)c(-c2cc3sc4cc(-c5cccc(-c6ccncc6)c5)sc4c3s2)c(C)c1` [Ref-1, reference compound], in data set [1], the solubility was not above 8 mM.
